# Laboratory results: ChEMBL document CHEMBL3301361, “Experimental in vitro DMPK and physicochemical data on a set of publicly disclosed compounds”
# Key:
# [1] = physchem
# [2] = physchem; remark: listed apart in the source
# [3] = in vitro; conditions: Dunkin Hartley, guinea pig, plasma
# [4] = in vitro; conditions: SD, HW or BN, rat, plasma
# [5] = in vitro; conditions: mouse, plasma
# [6] = in vitro; conditions: human, plasma
# [7] = in vitro; conditions: human, hepatocytes
# [8] = in vitro; conditions: Beagle, dog, plasma
# [9] = physchem; conditions: octan-1-ol/water
# [10] = physchem; remark: listed apart in the source
# [11] = in vitro; conditions: human
# [12] = in vitro; conditions: hepatocytes
# [13] = physchem; conditions: pH 7.4 buffer
SMILES,fraction unbound at 5 h [3],fraction unbound at 5 h [4],fraction unbound at 5 h [5],fraction unbound at 5 h ([6]; PPB),hepatocyte CLint [7],fraction unbound at 5 h [8],"logD ([9]; pH 7.4, LogD7.4)",hepatocyte CLint [12],further results
N=C(N)SCCc1cccc(CCSC(=N)N)c1,,,,,,,,,pKa [1]: 9.1; pKa [2]: 11
NC(=O)[C@@H](CCC(F)(F)F)N(Cc1ccc(-c2ncon2)cc1F)S(=O)(=O)c1ccc(Cl)cc1,0.0081,0.0119,0.0149,,,,,,
Cc1nn(-c2ccccc2)c(N)c1-c1ccccc1,0.0328,0.0457,,,32.4 µL/min/1e6 cells,0.0313,,,fraction unbound at 5 h [6]: 0.013
C#CCn1c(=O)c2c(-c3cncn3C)n(Cc3ccnc4ccc(Cl)cc34)nc2n(CC2CC2)c1=O,,,,,,,,,pKa [1]: 4.44
COc1ccc(CC(=O)NCc2ccccc2-c2ccccc2C(=O)NCCc2cccnc2)cc1,0.17,0.0836,0.0872,0.0066,,0.0705,,,
CCS(=O)(=O)c1ccc(-c2cc(C(F)(F)F)ccc2OCC(=O)O)c(C)c1,0.0928,0.0705,0.208,0.0428,,0.03,-0.45,,pKa [10]: 3.2
N#Cc1cc(F)c(Cl)cc1O[C@H](CCN)c1ccccc1,0.101,,,0.289,,0.0457,0.77,,pKa [2]: 9.6; microsomal CLint ([11]; liver microsomes): < 3 µL/min/mg
Cc1ccc(S(=O)(=O)Nc2c(C(=O)N[C@@H](C)C(C)(C)C)c(C)nn2C(C)C)cc1,0.271,0.0418,,0.0457,< 3 µL/min/1e6 cells,0.0736,,10 µL/min/1e6 cells,pKa [10]: 4.5
O=c1[nH]c2c(O)ccc([C@@H](O)CNCCc3cccc(CNCCc4ccccc4F)c3)c2s1,0.107,0.134,,,< 3 µL/min/1e6 cells,,1.06,22 µL/min/1e6 cells,microsomal CLint ([11]; liver microsomes): 17 µL/min/mg
CNC(=O)CCCN(C)C(=O)c1ccc2c(c1)c1c(n2C)CC[C@@H](C2CCOCC2)C1,0.329,0.0146,,,,0.258,,,fraction unbound at 5 h [6]: 0.0366
c1ccc([C@H]([C@@H](c2ccccc2)N2CCCCC2)N2CCCCC2)cc1,0.5,0.365,0.253,0.0606,,0.163,,12 µL/min/1e6 cells,microsomal CLint ([11]; liver microsomes): 13.8 µL/min/mg
c1ccc([C@@H]([C@H](c2ccccc2)N2CCCC2)N2CCCC2)cc1,0.489,0.329,0.339,0.17,,,,,
CC1=NC(c2cccc(-c3cncc(Cl)c3)c2)(C2CC2)N=C1N (stereo not drawn),,,,,,,,,pKa [1]: 2.28; pKa [2]: 6.04
CCCN(c1cccnc1)P(=O)(c1ccccc1)c1ccccc1,0.309,0.151,0.124,,,0.176,,,fraction unbound at 5 h [6]: 0.0205
O=P(c1ccccc1)(c1ccccc1)N(Cc1ccccn1)c1cccnc1,0.299,0.145,0.17,,,0.208,,,fraction unbound at 5 h [6]: 0.0234
O=P(c1ccccc1)(c1ccccc1)N(Cc1ccccn1)Cc1ccccn1,0.569,,0.0968,,,,,,fraction unbound at 5 h [6]: 0.0049
Cc1nc2ccc(Oc3ccc(F)cc3)cc2c(=O)n1C[C@H]1CCCN(C(C)C)C1,,,,,,,2.4,,pKa [1]: 2.65
C[C@H](Cc1cccc(CC(=O)NC23CC4CC(CC(C4)C2)C3)c1)NC[C@H](O)c1ccc(O)c(CO)c1,0.208,0.134,,,21.9 µL/min/1e6 cells,,2.4,43 µL/min/1e6 cells,microsomal CLint ([11]; liver microsomes): 129 µL/min/mg
CN(C)N(C)C(=O)[C@@]1(Cc2ccccc2)CCCN(C(=O)[C@@H](Cc2c[nH]c3ccccc23)NC(=O)C(C)(C)N)C1 [ANAMORELIN],0.22,0.16,,,8.91 µL/min/1e6 cells,0.0633,2.1,,
CN(C)c1nc(Cc2ccc(NC(=O)c3ccc(C(F)(F)F)cc3)cc2)nc(N(C)C)c1CC(=O)O [BI-671800],0.0437,0.0025,,0.0039,4.47 µL/min/1e6 cells,,1.46,18.6 µL/min/1e6 cells,solubility thermodynamic [13]: 28.8 µM; microsomal CLint ([11]; liver microsomes): < 3 µL/min/mg
NC(=O)N1c2ccccc2C=Cc2ccccc21 [CARBAMAZEPINE],0.24,0.266,,0.294,5.25 µL/min/1e6 cells,0.271,1.65,19.9 µL/min/1e6 cells,solubility thermodynamic [13]: 776 µM; microsomal CLint ([11]; microsomes): 7 µL/min/mg
CN(C)CCC(c1ccc(Cl)cc1)c1ccccn1 (stereo not drawn) [CHLORPHENIRAMINE],,,,,,,,,pKa [1]: 5.86
OCc1cc(C(O)CNCCCCCCOCCCCc2ccccc2)ccc1O (stereo not drawn) [SALMETEROL],0.0477,0.0736,,0.0661,,0.0179,,85 µL/min/1e6 cells,microsomal CLint ([11]; liver microsomes): 58 µL/min/mg
C[N+]1(C)[C@@H]2C[C@@H](OC(=O)C(O)(c3cccs3)c3cccs3)C[C@H]1[C@@H]1O[C@@H]12 [TIOTROPIUM],0.613,,,,,0.807,,,logD ([9]; pH 7.4): -0.25
COc1ccc(CCO[C@@H]2CCCC[C@H]2N2CC[C@@H](O)C2)cc1OC [VERNAKALANT],0.309,0.776,,0.629,6.46 µL/min/1e6 cells,0.772,,,

# Now from value to molecule, other results behind:
fraction unbound at 5 h [3],fraction unbound at 5 h [4],fraction unbound at 5 h [5],fraction unbound at 5 h ([6]; PPB),hepatocyte CLint [7],fraction unbound at 5 h [8],"logD ([9]; pH 7.4, LogD7.4)",hepatocyte CLint [12],SMILES,further results
0.105,0.101,,0.0447,13.8 µL/min/1e6 cells,,,,Cc1nn(C2CCCCC2)c(N)c1-c1ccccc1,
0.17,0.0705,,0.0532,25.9 µL/min/1e6 cells,,3,> 150 µL/min/1e6 cells,CCCCN(CCNCCc1ccc(O)c2[nH]c(=O)sc12)C(=O)CCOCCc1ccccc1,microsomal CLint ([11]; liver microsomes): 141 µL/min/mg
0.0088,0.0082,,0.0067,14.8 µL/min/1e6 cells,,3.12,85 µL/min/1e6 cells,O=c1[nH]c2c(O)ccc([C@@H](O)CNCCCSCCOCCc3cccc4ccccc34)c2s1,microsomal CLint ([11]; liver microsomes): 70 µL/min/mg
0.0736,0.0293,,0.0136,,,2.35,5.01 µL/min/1e6 cells,Cc1nn(-c2ccc(F)cc2)c(NS(=O)(=O)c2ccc(C(F)(F)F)cc2)c1C(=O)N[C@@H](C)C(C)(C)C,pKa [10]: 3.4; microsomal CLint ([11]; microsomes): 10 µL/min/mg
0.035,0.0082,,0.0133,40 µL/min/1e6 cells,,2.09,25 µL/min/1e6 cells,COc1cccc2c1c(NS(=O)(=O)c1ccc(Cl)s1)nn2Cc1cccc(CNC(=O)C(C)(C)O)c1,solubility thermodynamic [13]: 81.3 µM; microsomal CLint ([11]; liver microsomes): 50 µL/min/mg
0.11,0.0752,,0.0374,,0.0477,,,O=C(N[C@@H]1COc2cccc(-c3ccc(CO)nc3)c2C1)c1ccc(OCC(F)(F)F)nc1,
0.489,0.339,0.271,0.17,,,,,c1ccc([C@H]([C@@H](c2ccccc2)N2CCCC2)N2CCCC2)cc1,
0.072,,0.0041,0.0801,,,,,CC#Cc1cncc(-c2ccc3c(c2)C2(N=C(C)C(N)=N2)[C@]2(CC[C@H](OC)CC2)C3)c1 (stereo partly drawn),
0.715,0.285,0.465,0.204,,0.591,0.66,16.6 µL/min/1e6 cells,N#Cc1ccc2ccc(=O)n(CCN3CC[C@@H](NCc4ccc5c(n4)NC(=O)CO5)[C@@H](F)C3)c2c1,
0.17,,,0.089,,0.0488,3.51,,O=C(c1c[nH]c(=O)c2ccccc12)N1CCC(N2CCC(Oc3ccc(Cl)c(Cl)c3)CC2)CC1,
0.19,0.173,,,,0.197,,,CCCNC(c1cccnc1)P(=O)(c1ccccc1)c1ccccc1 (stereo not drawn),
0.0854,,0.0647,0.0262,,,,,COc1ccc2c(C)cc(N[C@H]3CC[C@H](NCc4cn(C)c5cccnc45)C3)nc2c1,
0.013,0.0033,,0.0053,,0.004,,,O=C(CC1CCN(Cc2ccn(-c3ccc(C(F)(F)F)cn3)c2)CC1)NC(c1ccc(F)cc1)c1ccc(F)cc1,
0.0256,0.0191,,0.0171,,0.0039,,18.2 µL/min/1e6 cells,CCN(Cc1cc(C(F)(F)F)ccc1-c1cc(CC(=O)O)ccc1OC)C(=O)NCc1ccccc1 [AM-211],solubility thermodynamic [13]: 1380 µM; microsomal CLint ([11]; microsomes): 67.6 µL/min/mg
0.139,0.179,0.139,0.009,,,,,C[C@H](CN(C(=O)c1ccc(C#N)cc1)c1ccccn1)N1CCN(c2cccc3c2OCCO3)CC1 [LECOZOTAN],
0.635,,,,< 3 µL/min/1e6 cells,,1.67,,Cc1nccn1CC1CCc2c(c3ccccc3n2C)C1=O (stereo not drawn) [ONDANSETRON],pKa [2]: 7.73; microsomal CLint ([11]; liver microsomes): 6.46 µL/min/mg
